What all share (assay type): functional, organism-based
What all share (conditions): dose 50.0 µg

One experiment concerns Escherichia coli. The experiment is described as follows: Antibacterial activity against Escherichia coli assessed as inhibition of bacterial growth at 50 ug incubated for 24 hrs by paper disc method.
A further experiment deals with Staphylococcus aureus. The experiment can be described thus: Antibacterial activity against Staphylococcus aureus assessed as inhibition of bacterial growth at 50 ug incubated for 24 hrs by paper disc method.
The next experiment concerns Bacillus subtilis. The experiment is described as follows: Antibacterial activity against Bacillus subtilis assessed as inhibition of bacterial growth at 50 ug incubated for 24 hrs by paper disc method.

Structures are written as SMILES. The source made the active and inactive calls. The rule behind the calls is not given here.

In the case of `OCC(O)CO`, the outcome with Escherichia coli, with Staphylococcus aureus and with Bacillus subtilis was inactive.
With `CC/C=C\C[C@@H]1C(=O)C=C[C@@H]1CCCCCCCC(=O)OCC(O)CO` (some centres not stated), in the experiment on Escherichia coli, the result was inactive. Also, the outcome with Staphylococcus aureus and in the experiment with Bacillus subtilis was Active.
Regarding `CC/C=C\C[C@H]1C(=O)CC[C@@H]1CC(=O)O`, the result in the experiment with Escherichia coli, with Staphylococcus aureus and in the experiment with Bacillus subtilis was inactive.
For the compound `CC/C=C\C[C@@H]1C(=O)C=C[C@@H]1CCCCCCCC(=O)O`, the outcome in the experiment with Escherichia coli was inactive. Moreover, the result in the experiment on Staphylococcus aureus and with Bacillus subtilis was Active.

Values taken from ChEMBL document CHEMBL5634177, “Isolation and Structure Determination of cis-OPDA-α-Monoglyceride from Arabidopsis thaliana” (J Nat Prod, 2024).
